Reference: ChEMBL document CHEMBL1125918, “Synthesis of 3-carbamoylecgonine methyl ester analogues as inhibitors of cocaine binding and dopamine uptake” (J Med Chem, 1991)
pIC50: −log10 of the molar value.

Species: Rattus norvegicus
Test: Compound was evaluated in vitro, for the ability to inhibit [3H]- dopamine uptake into synaptosomes (prepared from rat striatal tissues).
Assay type: functional
Conditions: Brain

## COC(=O)C1C2CC[C@H](C[C@@H]1OC(=O)Nc1cccc([N+](=O)[O-])c1)N2C (stereo partly specified)
  pIC50: 6.75

## COC(=O)C1C2CC[C@H](C[C@@H]1OC(=O)Nc1ccc([N+](=O)[O-])cc1)N2C (stereo partly specified)
  pIC50: 5.24

## COC(=O)C1C2CC[C@H](C[C@@H]1OC(=O)Nc1ccccc1)N2C (stereo partly specified)
  pIC50: 4.28

## COC(=O)C1C2CC[C@H](C[C@@H]1OC(=O)Nc1ccc(N)cc1)N2C (stereo partly specified)
  pIC50: < 4.00

## COC(=O)C1C2CC[C@H](C[C@@H]1OC(=O)Nc1cccc(N)c1)N2C (stereo partly specified)
  pIC50: 4.64

## COC(=O)[C@H]1[C@@H](OC(=O)c2ccccc2)C[C@@H]2CC[C@H]1N2C [COCAINE]
  pIC50: 6.67
